Experimental data as given in patent US9693560B2, “Microbicide substances” (LANXESS Deutschland GmbH, priority 2013, dated 2017).
Counter-ions that a name gives are not always drawn. Like-named read-outs stand apart in the source and are kept apart here.

Legend:
Format in all cases: cell-based
Candida albicans = assay: MIC growth test (malt extract Bouillon)
Experimental: (§1) The growth of bacteria and fungi upon the addition of different biocidal mixtures was tested. The concentration above which growth is no longer detected is given as the minimum inhibitory concentration (MIC). The precultivation of the bacteria which were used in the test was performed on tryptone soya agar. The precultivation of the fungi which were used in the test was performed on malt extract agar. The growth in the MIC tests was checked in tryptone soya broth (bacteria) or malt extract Bouillon (fungi). The organisms were incubated at 26° C. and a relative […] humidity of 70 to 80%. The bacteria were evaluated after 4 days, and the fungi were evaluated […] after 7 days.
(§2) The synergistic index (SI) was determined in accordance with the method described by Kull et al. (F. C. Kull et al., Applied Microbiology 9 (1961), 538-541).
(§3) The following equation applies here: SI=QA/Qa+QB/Qb

Citrobacter freundii = assay: MIC growth test (tryptone soya broth)
Experimental: as §1, §2, §3

Enterococcus hirae = assay: MIC growth test (tryptone soya broth)
Experimental: as §1, §2, §3

Staphylococcus aureus = assay: MIC growth test (tryptone soya broth)
Experimental: as §1, §2, §3

Enterobacter aerogenes = assay: MIC growth test (tryptone soya broth)
Experimental: as §1, §2, §3

Proteus hauseri = assay: MIC growth test (tryptone soya broth)
Experimental: as §1, §2, §3

Pseudomonas aeruginosa = assay: MIC growth test (tryptone soya broth)
Experimental: as §1, §2, §3

Pseudomonas stutzeri = assay: MIC growth test (tryptone soya broth)
Experimental: as §1, §2, §3

[1] = system: Corynebacterium ammoniagenes; assay: MIC growth test (tryptone soya broth)
Experimental: as §1, §2, §3

Bacillus subtilis = assay: MIC growth test (tryptone soya broth)
Experimental: as §1, §2, §3

Alcaligenes faecalis = assay: MIC growth test (tryptone soya broth)
Experimental: as §1, §2, §3

Geotrichum candidum = assay: MIC growth test (malt extract Bouillon)
Experimental: as §1, §2, §3

Penicillium pinophilum = assay: MIC growth test (malt extract Bouillon); details: Talaromyces pinophilus
Experimental: as §1, §2, §3

Paecilomyces formosus = assay: MIC growth test (malt extract Bouillon)
Experimental: as §1, §2, §3

Alternaria alternata = assay: MIC growth test (malt extract Bouillon)
Experimental: as §1, §2, §3

Stachybotrys chartarum = assay: MIC growth test (malt extract Bouillon)
Experimental: as §1, §2, §3

Escherichia coli = assay: MIC growth test (tryptone soya broth)
Experimental: as §1, §2, §3

Salmonella enterica = assay: MIC growth test (tryptone soya broth); details: Example 3, Table 11
Experimental: as §1, §2, §3

For O=c1[nH]sc2ccccc12 [BIT, 1,2-benzisothiazolin-3-one], the MIC (Candida albicans; Example 3, Table 17) was 25 ppm, the MIC (Citrobacter freundii; Example 3, Table 11) was 10 ppm and the MIC (Enterococcus hirae; Example 3, Table 11) was 10 ppm. For the same compound, the MIC (Staphylococcus aureus; Example 3, Table 14) was 5 ppm, the MIC (Enterobacter aerogenes; Enterobacter aerogenes, Example 3, Table 11) was 25 ppm and the MIC (Proteus hauseri; Example 3, Table 11) was 7.5 ppm. For the same compound, the MIC (Pseudomonas aeruginosa; Example 3, Table 11) was 50 ppm, the MIC (Pseudomonas stutzeri; Pseudomonas stutzeri, Example 3, Table 11) was 10 ppm and the MIC ([1]; Example 3, Table 11) was 37.5 ppm. For the same compound, the MIC (Bacillus subtilis; Example 3, Table 11) was 5 ppm and the MIC (Alcaligenes faecalis; Example 3, Table 11) was 2.5 ppm.
CCCCCCCCCCCCNC(=N)N [DGH, dodecylguanidine hydrochloride] gave an MIC (Geotrichum candidum) of 10 µg/mL, an MIC (Candida albicans) of 25 µg/mL and an MIC (Penicillium pinophilum) of 7.5 µg/mL. For the same compound, the MIC (Paecilomyces formosus) was 5 µg/mL, the MIC (Alternaria alternata) was 10 µg/mL and the MIC (Stachybotrys chartarum; Example 2, Table 10) was 7.5 µg/mL. It also gave an MIC (Stachybotrys chartarum; Example 4, Table 23) of 10 µg/mL, an MIC (Citrobacter freundii) of 5 µg/mL and an MIC (Citrobacter freundii; Example 3, Table 11) of 5 ppm. It also gave an MIC (Escherichia coli) of 5 µg/mL, an MIC (Enterococcus hirae) of 2.5 µg/mL and an MIC (Staphylococcus aureus) of 1 µg/mL. The MIC (Staphylococcus aureus; Example 3, Table 14) was 1 ppm, the MIC (Enterobacter aerogenes; Klebsiella aerogenes) was 10 µg/mL and the MIC (Salmonella enterica) was 10 µg/mL. The MIC (Proteus hauseri) was 10 µg/mL, the MIC (Pseudomonas aeruginosa) was 25 µg/mL and the MIC (Pseudomonas stutzeri; Stutzerimonas stutzeri) was 5 µg/mL. It also gave an MIC [1] of 2.5 µg/mL, an MIC (Bacillus subtilis; Example 2, Table 7) of 2.5 µg/mL and an MIC (Bacillus subtilis; Example 3, Table 11) of 3.75 µg/mL. It also gave an MIC (Alcaligenes faecalis) of 10 µg/mL and an MIC (Alcaligenes faecalis; Example 3, Table 11) of 10 ppm.
Compound Cn1sccc1=O [MIT, 2-methyl-4-isothiazolin-3-one] has an MIC (Alternaria alternata) of 100 µg/mL, an MIC (Stachybotrys chartarum; Example 4, Table 23) of 250 µg/mL and an MIC (Escherichia coli) of 25 µg/mL.
